Experimental data as given in ChEMBL document CHEMBL1201862, “PubChem BioAssay data set” (2004).
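Cells were grown in 96-well plates and exposed to each compound for 48 hours at five concentrations; endpoints were interpolated linearly between bracketing concentrations, or set to the highest concentration if not reached. Abbreviation: GI50, concentration required for 50% inhibition of growth.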 The source made the active and inactive calls. Rule as the data show it: active = GI50 up to about 1.1 µM and inactive = higher.

Tests used:
Test in all cases: NCI-60 cell line screen, 48 h
ACHN = system: ACHN
COLO 205 = system: COLO 205
DU-145 = system: DU-145
HCT-116 = system: HCT-116
HL-60 = system: HL-60
HOP-92 = system: HOP-92
HT-29 = system: HT-29
Hs-578T = system: Hs-578T
K562 = system: K562
KM12 = system: KM12
MCF7 = system: MCF7
MDA-MB-231 = system: MDA-MB-231
NCI/ADR-RES = system: NCI/ADR-RES
OVCAR-5 = system: OVCAR-5
PC-3 = system: PC-3
SK-MEL-5 = system: SK-MEL-5
SN12C = system: SN12C
SNB-75 = system: SNB-75
TK-10 = system: TK-10

SMILES | GI50 (ACHN) | GI50 (COLO 205) | GI50 (DU-145) | GI50 (HCT-116) | GI50 (HL-60) | GI50 (HOP-92) | GI50 (HT-29) | GI50 (Hs-578T) | GI50 (K562) | GI50 (KM12) | GI50 (MCF7) | GI50 (MDA-MB-231) | GI50 (NCI/ADR-RES) | GI50 (OVCAR-5) | GI50 (PC-3) | GI50 (SK-MEL-5) | GI50 (SN12C) | GI50 (SNB-75) | GI50 (TK-10)
COC1OC(=O)C(OC)C(OC)C1OC (stereo not drawn) | > 100 µM (inactive) | > 100 µM (inactive) | > 100 µM (inactive) | > 100 µM (inactive) | > 100 µM (inactive) | > 100 µM (inactive) | > 100 µM (inactive) | > 100 µM (inactive) | > 100 µM (inactive) | > 100 µM (inactive) | > 100 µM (inactive) | > 100 µM (inactive) | > 100 µM (inactive) | > 100 µM (inactive) | > 100 µM (inactive) | > 100 µM (inactive) | > 100 µM (inactive) | > 100 µM (inactive) | > 100 µM (inactive)
O=C1/C(=C/c2ccccc2S)N=C(c2ccccc2)N1c1nc2ccc(Sc3ccccc3)cc2[nH]1 | 50.5 µM (inactive) | 20.4 µM (inactive) | 34.9 µM (inactive) | 33.4 µM (inactive) | 19.8 µM (inactive) | 81.3 µM (inactive) | 20.2 µM (inactive) | 28.2 µM (inactive) | 24.1 µM (inactive) | 27.6 µM (inactive) | 27 µM (inactive) | 26.1 µM (inactive) | 22 µM (inactive) | 32.4 µM (inactive) | 32.2 µM (inactive) | 18.4 µM (inactive) | 26.4 µM (inactive) | 22.3 µM (inactive) | 27 µM (inactive)
O=C(/C=C/c1ccc2ccccc2c1)NCc1ccc(C(=O)NCc2ccccc2)cc1 | > 68.7 µM (inactive) | > 100 µM (inactive) | > 100 µM (inactive) | > 100 µM (inactive) | 14.7 µM (inactive) | > 100 µM (inactive) | 35.7 µM (inactive) | 37.9 µM (inactive) | > 31.6 µM (inactive) | > 100 µM (inactive) | > 83.6 µM (inactive) | > 100 µM (inactive) | > 100 µM (inactive) | > 100 µM (inactive) | > 100 µM (inactive) | 98.9 µM (inactive) | > 100 µM (inactive) | 19.6 µM (inactive) | > 100 µM (inactive)
NC(=S)NN=C1Cc2ccccc2C1 | > 100 µM (inactive) | > 100 µM (inactive) | > 100 µM (inactive) | > 100 µM (inactive) | > 100 µM (inactive) | > 100 µM (inactive) | > 100 µM (inactive) | > 100 µM (inactive) | > 100 µM (inactive) | > 100 µM (inactive) | > 100 µM (inactive) | > 100 µM (inactive) | > 100 µM (inactive) | > 100 µM (inactive) | > 100 µM (inactive) | > 100 µM (inactive) | > 100 µM (inactive) | > 100 µM (inactive) | > 100 µM (inactive)
CC1(C)S[C@@H]2[C@H](N3C(=O)c4ccccc4C3=O)CN2[C@H]1NC(=O)N[C@@H]1N2C[C@@H](N3C(=O)c4ccccc4C3=O)[C@H]2SC1(C)C | > 100 µM (inactive) | > 100 µM (inactive) | > 100 µM (inactive) | > 100 µM (inactive) | > 100 µM (inactive) | 42.2 µM (inactive) | > 100 µM (inactive) | > 100 µM (inactive) | > 100 µM (inactive) | > 100 µM (inactive) | > 100 µM (inactive) | 52.7 µM (inactive) | > 100 µM (inactive) | > 100 µM (inactive) | > 100 µM (inactive) | > 100 µM (inactive) | > 100 µM (inactive) | 58.2 µM (inactive) | 77.1 µM (inactive)
Oc1ccccc1CNCc1nc2ccccc2[nH]1 | 12.9 µM (inactive) | 29.7 µM (inactive) | > 100 µM (inactive) | 37 µM (inactive) | 40.9 µM (inactive) | 73.5 µM (inactive) | 0.495 µM (active) | > 100 µM (inactive) | 51.2 µM (inactive) | 89.5 µM (inactive) | > 100 µM (inactive) | 71.9 µM (inactive) | 15.9 µM (inactive) | > 100 µM (inactive) | 71.9 µM (inactive) | 22.4 µM (inactive) | > 100 µM (inactive) | 57.4 µM (inactive) | 83 µM (inactive)
CC1=C(C)SC(=C2Sc3c(n(C)c(=O)n(C)c3=O)S2)S1 | 45 µM (inactive) | 89.9 µM (inactive) | > 100 µM (inactive) | 10.7 µM (inactive) | > 100 µM (inactive) | 53.7 µM (inactive) | 76.9 µM (inactive) | 61.4 µM (inactive) | 62.7 µM (inactive) | > 100 µM (inactive) | > 100 µM (inactive) | 22.7 µM (inactive) | 55.3 µM (inactive) | > 100 µM (inactive) | > 100 µM (inactive) | 33.7 µM (inactive) | 35 µM (inactive) | 20.7 µM (inactive) | 27.9 µM (inactive)
